Measurements taken from patent publication US10519145B2, “Pyrazole-oxazolidinone compound for anti-hepatitis B virus” (Shanghai Zhimeng Biopharma Co., Ltd., priority 2016, dated 2019).

Columns and labels:
HBV (HepG2.2.15 cells) = experiment: Anti-HBV activity experiment in vitro (HepG2.2.15, HBV DNA in supernatant, qPCR); format: cell-based; settings: Hepatitis B virus, HBV DNA in supernatant by qPCR, eighth day
Description: Compound Dilution: initial concentrations of all compounds used in the anti-HBV activity experiments in vitro were 1 μM, 3-fold diluted into 8 concentrations; initial concentrations of all compounds used in the cytotoxicity assay were 100 μM, 3-fold diluted into 8 concentrations; and the mother liquor of the compound was diluted with DMSO.
(§1) Anti-HBV Activity Experiment In Vitro: HepG2.2.15 cells (4×10^4 cells/well) were seeded in 96-well plates and cultured overnight at 37° C. in 5% CO2. The next day, fresh cultures containing compounds in different concentrations were added into the culture wells. On the fifth day, the old culture medium in the culture wells was aspirated and removed. Fresh medium containing compounds in different concentrations was added. On the eighth day, supernatants in the culture wells were collected and used to extract HBV DNA in the supernatant. qPCR assay was used to detect HBV DNA content in the HepG2.2.15 supernatant.
The data analysis and the percentage of inhibition calculation: the percentage of inhibition was calculated by using the following formula: Inhibition %=[(HBV amount in DMSO control−HBV amount in sample)/HBV amount in DMSO control]×100%.

[1] = Pharmacokinetic determination in rats (IV and PO); format: in vivo, Sprague Dawley rats; settings: rat
Description: The pharmacokinetics of the compound of Example 3 (racemate) in the present application was determined in rats.
Test compounds were intravenously (IV) and orally (P0) administered to Sprague Dawley rats once. Blood samples were collected at different time points. LC/MS/MS was used to determine the concentration of the test compounds in the rat plasma after the administration of the test compounds and calculate the relating parameters.
Time points for animal blood collection were: before administration, 5 min, 15 min, 30 min, 1 h, 2 h, 4 h, 6 h, 8 h and 24 h after administration. Approximately 0.3 mL of blood via jugular or other appropriate venipuncture was collected from each animal and anticoagulated with heparin sodium. Blood samples were collected and placed on ice, and plasma was centrifuged (centrifugation: 8000 rpm, 6 min, 4° C.). Plasma samples were stored in a −70° C. freezer before analysis.
50 μL of sample was taken into a 1.5 mL centrifuge tube, and 250 μL of internal standard solution was added. After subjected to vortex for 60 seconds and centrifugation for 5 min (14,000 revolutions/min), 200 μL of supernatant was taken into a 96-well sample plate for analysis.
Mass spectrometer: API 4000, Applied Biosystems, Inc., Electrospray Ionization Source (ESI), Tandem quadrupole mass analyzer.
Mass spectrometry conditions: ion source: electrospray ionization source (ESI); auxiliary gas (Gas1): 60 psi; auxiliary gas (Gas2): 60 psi; curtain gas (CUR): 14 psi; collision gas (CAD): 6; ion source voltage (IS): 5500V; ion source temperature (TEM): 550° C.
Liquid phase conditions: chromatography Column: Thermo AQUASIL C18 (50×2.1 mm); chromatographic mobile phase: A is 0.1% formic acid in water, solution B is 0.1% formic acid in methanol (A:B=80%: 20%-10%: 90%); flow rate: 500 μL/min; injection volume: 1 μL.
According to the drug blood concentration data, the pharmacokinetic parameters of the test compound were calculated using the pharmacokinetic calculation software WinNonlin 5.2 non-compartmental model.

[2] = test system: HBV genotype AB033554 (B); experiment: Anti-different genotypic HBV strain activity assay in vitro, transient transfection; format: cell-based; settings: Hepatitis B virus, HepG2
Description: as §1, with “Compounds were tested for in vitro activity against different genotypic HBV strains using a transient transfection cell model. HepG2 cells” for “Anti-HBV Activity Experiment In Vitro: HepG2.2.15 cells”, “cells/well) that had been transfected with different HBV genotypic strains” for “cells/well)”, “seeded into” for “seeded in”, “removed. The fresh” for “removed. Fresh”, “to detected” for “to detect”, “the HepG2” for “the HepG2.2.15”

[3] = test system: HBV genotype JN406371 (B); experiment: as above; format: cell-based; settings: Hepatitis B virus, HepG2
Description: as §1, with “Compounds were tested for in vitro activity against different genotypic HBV strains using a transient transfection cell model. HepG2 cells” for “Anti-HBV Activity Experiment In Vitro: HepG2.2.15 cells”, “cells/well) that had been transfected with different HBV genotypic strains” for “cells/well)”, “seeded into” for “seeded in”, “removed. The fresh” for “removed. Fresh”, “to detected” for “to detect”, “the HepG2” for “the HepG2.2.15”

[4] = test system: HBV genotype AB246346 (C); experiment: as above; format: cell-based; settings: Hepatitis B virus, HepG2
Description: as §1, with “Compounds were tested for in vitro activity against different genotypic HBV strains using a transient transfection cell model. HepG2 cells” for “Anti-HBV Activity Experiment In Vitro: HepG2.2.15 cells”, “cells/well) that had been transfected with different HBV genotypic strains” for “cells/well)”, “seeded into” for “seeded in”, “removed. The fresh” for “removed. Fresh”, “to detected” for “to detect”, “the HepG2” for “the HepG2.2.15”

[5] = test system: HBV genotype AB246345 (C); experiment: as above; format: cell-based; settings: Hepatitis B virus, HepG2
Description: as §1, with “Compounds were tested for in vitro activity against different genotypic HBV strains using a transient transfection cell model. HepG2 cells” for “Anti-HBV Activity Experiment In Vitro: HepG2.2.15 cells”, “cells/well) that had been transfected with different HBV genotypic strains” for “cells/well)”, “seeded into” for “seeded in”, “removed. The fresh” for “removed. Fresh”, “to detected” for “to detect”, “the HepG2” for “the HepG2.2.15”

[6] = test system: HBV genotype AP007263 (A); experiment: as above; format: cell-based; settings: Hepatitis B virus, HepG2
Description: as §1, with “Compounds were tested for in vitro activity against different genotypic HBV strains using a transient transfection cell model. HepG2 cells” for “Anti-HBV Activity Experiment In Vitro: HepG2.2.15 cells”, “cells/well) that had been transfected with different HBV genotypic strains” for “cells/well)”, “seeded into” for “seeded in”, “removed. The fresh” for “removed. Fresh”, “to detected” for “to detect”, “the HepG2” for “the HepG2.2.15”

HBV genotype U95551 (D) = experiment: as above; format: cell-based; settings: Hepatitis B virus, HepG2
Description: as §1, with “Compounds were tested for in vitro activity against different genotypic HBV strains using a transient transfection cell model. HepG2 cells” for “Anti-HBV Activity Experiment In Vitro: HepG2.2.15 cells”, “cells/well) that had been transfected with different HBV genotypic strains” for “cells/well)”, “seeded into” for “seeded in”, “removed. The fresh” for “removed. Fresh”, “to detected” for “to detect”, “the HepG2” for “the HepG2.2.15”

[7] = test system: HBV genotype HE974371 (A2); experiment: as above; format: cell-based; settings: Hepatitis B virus, HepG2
Description: as §1, with “Compounds were tested for in vitro activity against different genotypic HBV strains using a transient transfection cell model. HepG2 cells” for “Anti-HBV Activity Experiment In Vitro: HepG2.2.15 cells”, “cells/well) that had been transfected with different HBV genotypic strains” for “cells/well)”, “seeded into” for “seeded in”, “removed. The fresh” for “removed. Fresh”, “to detected” for “to detect”, “the HepG2” for “the HepG2.2.15”

[8] = test system: nucleoside drug-resistant HBV strain L180M + M204V; experiment: In vitro anti-nucleoside drug-resistant HBV strain activity experiment, transient transfection; format: cell-based; settings: Hepatitis B virus, HepG2, 192 h
Description: as §1, with “Compounds were tested for in vitro activity against nucleoside drug-resistant HBV strains using a transient transfection cell model. HepG2 cells” for “Anti-HBV Activity Experiment In Vitro: HepG2.2.15 cells”, “cells/well) that had been transfected with nucleoside drug-resistant HBV strains” for “cells/well)”, “seeded into” for “seeded in”, “removed. The fresh” for “removed. Fresh”, “the HepG2” for “the HepG2.2.15”

[9] = test system: nucleoside drug-resistant HBV strain M204I + S202G + M250V; experiment: as above; format: cell-based; settings: Hepatitis B virus, HepG2, 192 h
Description: as §1, with “Compounds were tested for in vitro activity against nucleoside drug-resistant HBV strains using a transient transfection cell model. HepG2 cells” for “Anti-HBV Activity Experiment In Vitro: HepG2.2.15 cells”, “cells/well) that had been transfected with nucleoside drug-resistant HBV strains” for “cells/well)”, “seeded into” for “seeded in”, “removed. The fresh” for “removed. Fresh”, “the HepG2” for “the HepG2.2.15”

[10] = test system: nucleoside drug-resistant HBV strain M204I; experiment: as above; format: cell-based; settings: Hepatitis B virus, HepG2
Description: as §1, with “Compounds were tested for in vitro activity against nucleoside drug-resistant HBV strains using a transient transfection cell model. HepG2 cells” for “Anti-HBV Activity Experiment In Vitro: HepG2.2.15 cells”, “cells/well) that had been transfected with nucleoside drug-resistant HBV strains” for “cells/well)”, “seeded into” for “seeded in”, “removed. The fresh” for “removed. Fresh”, “the HepG2” for “the HepG2.2.15”

HBV strain U95551 (WT) = experiment: as above; format: cell-based; settings: Hepatitis B virus, transfected HepG2 cells
Description: as §1, with “Compounds were tested for in vitro activity against nucleoside drug-resistant HBV strains using a transient transfection cell model. HepG2 cells” for “Anti-HBV Activity Experiment In Vitro: HepG2.2.15 cells”, “cells/well) that had been transfected with nucleoside drug-resistant HBV strains” for “cells/well)”, “seeded into” for “seeded in”, “removed. The fresh” for “removed. Fresh”, “the HepG2” for “the HepG2.2.15”

[11] = test system: nucleoside drug-resistant HBV strain M204I + S202G; experiment: as above; format: cell-based; settings: Hepatitis B virus, HepG2, 192 h
Description: as §1, with “Compounds were tested for in vitro activity against nucleoside drug-resistant HBV strains using a transient transfection cell model. HepG2 cells” for “Anti-HBV Activity Experiment In Vitro: HepG2.2.15 cells”, “cells/well) that had been transfected with nucleoside drug-resistant HBV strains” for “cells/well)”, “seeded into” for “seeded in”, “removed. The fresh” for “removed. Fresh”, “the HepG2” for “the HepG2.2.15”

[12] = test system: nucleoside drug-resistant HBV strain M204I + V173L; experiment: as above; format: cell-based; settings: Hepatitis B virus, HepG2, 192 h
Description: as §1, with “Compounds were tested for in vitro activity against nucleoside drug-resistant HBV strains using a transient transfection cell model. HepG2 cells” for “Anti-HBV Activity Experiment In Vitro: HepG2.2.15 cells”, “cells/well) that had been transfected with nucleoside drug-resistant HBV strains” for “cells/well)”, “seeded into” for “seeded in”, “removed. The fresh” for “removed. Fresh”, “the HepG2” for “the HepG2.2.15”

[13] = Sprague Dawley, IV, single administration, plasma
[14] = Sprague Dawley, PO, single administration, plasma

Structure (SMILES)	EC50 (HBV (HepG2.2.15 cells)) [nM]	EC50 [2] [nM]	EC50 [3] [nM]	EC50 [4] [nM]	EC50 [5] [nM]	EC50 [6] [nM]	EC50 (HBV genotype U95551 (D)) [nM]	EC50 [7] [nM]	EC50 [8] [nM]	EC50 [9] [nM]	EC50 [10] [nM]	EC50 (HBV strain U95551 (WT)) [nM]	EC50 [11] [nM]	EC50 [12] [nM]	other results
O=C1COC(c2cn(-c3ccc(Br)cc3)nc2-c2ccc(F)cc2)N1CCc1ccc2[nH]c(=O)[nH]c2c1 (racemic) [example 3 racemate, 3-(2-(2-oxo-2,3-dihydro-1H-benzo[d]imidazol-5-yl)ethyl)-2-(1-(4-bromophenyl)-3-(4-fluorophenyl)-1H-pyrazol-4-yl)-oxazolidin-4-one]	31.2	–	–	–	–	–	–	–	–	–	–	–	–	–	Vd ([1]; Sprague Dawley, plasma, IV, single administration, read-out: Vz): 6.22 L/kg; AUC(0-inf) [1, 13]: 3880 ng·h/mL; Cmax [1, 13]: 5460 ng/mL; Tmax [1, 13]: 0.083 h; half-life [1, 13]: 3.52 h; AUC(0-inf) [1, 14]: 773 ng·h/mL; Cmax [1, 14]: 201 ng/mL; Tmax [1, 14]: 0.83 h; half-life [1, 14]: 2.07 h; CLz ([1]; IV, single administration): 21.8 mL/min/kg; F ([1]; PO vs IV): 18.55%; Vz ([1]; PO, single administration): 3.58 L/kg
O=C1Cc2cc(CCN3C(=O)COC3c3cn(-c4ccc(Br)cc4)nc3-c3ccc(F)cc3)ccc2N1 (racemic) [example 13 racemate]	22	47	36	59.2	30.9	168	86.8	32.5	102	87.4	75.8	82	74.7	72.2	–
Nc1ccn([C@@H]2CS[C@H](CO)O2)c(=O)n1 [Lamivudine, 3′-thio-2′,3′-dideoxycytidine, reference compound]	–	156	112	128	97.2	136	123	136	> 100000	> 100000	> 100000	94.9	> 100000	> 100000	–
COC(=O)Nc1nc2cc(CCN3C(=O)COC3c3cn(-c4ccc(Br)cc4)nc3-c3ccc(F)cc3)ccc2[nH]1 (centres unmarked) [example 23, Methyl (5-(2-(2-(I -(4-bromophenyl)-3-(4-fluorophenyl)-1H-pyrazol-4-yl)oxazoline-4-one-3-yl)ethyl)-1H-benzo[d]imidazol-2-yl)carbamate]	127	–	–	–	–	–	–	–	–	–	–	–	–	–	–
